ChEMBL document CHEMBL3593204, “Discovery of substituted 1,4-dihydroquinolines as novel class of ABCB1 modulators” (Bioorg Med Chem, 2015)
The source made the active and inactive calls. No cut-off for these calls is given here.

What was measured:
[1] = target: T1, ATP-dependent translocase ABCB1 (Homo sapiens, UniProt P08183); test: Inhibition of human ABCB1 expressed in mouse L5178Y cells using rhodamine 123 as substrate assessed as ratio of fluorescent intensity in ABCB1 expressing L5178Y cells to wild type L5178Y cells at 10 uM after 20 mins by flow cytometry; format: cell-based
[2] = target: T1, ATP-dependent translocase ABCB1; test: Inhibition of human ABCB1 expressed in mouse L5178Y cells using rhodamine 123 as substrate assessed as ratio of fluorescent intensity in ABCB1 expressing L5178Y cells to wild type L5178Y cells at 1 uM after 20 mins by flow cytometry; format: cell-based
L5178Y [3] = test: Cytotoxicity against wild type mouse L5178Y cells after 48 hrs by MTT assay; format: cell-based
Homo sapiens [4] = species on record: Homo sapiens; test: Induction of ABCB1 expression in human EPG85-257RDB cells at 10 uM after 72 hrs by Western blot analysis in presence of daunorubicin; format: functional, cell-based
L5178Y [5] = test: Cytotoxicity against wild type mouse L5178Y cells by MTT assay; format: cell-based
EPG85-257P [6] = test: Induction of ABCB1 expression in human EPG85-257P cells at 10 uM after 72 hrs by Western blot analysis; format: functional, cell-based
EPG85-257P [7] = test: Induction of ABCB1 expression in human EPG85-257P cells at 10 uM after 72 hrs by Western blot analysis in presence of daunorubicin; format: functional, cell-based
L5178Y [8] = test: Cytotoxicity against mouse L5178Y cells expressing human ABCB1 after 48 hrs by MTT assay; format: ADME, cell-based
L5178Y [9] = test: Cytotoxicity against mouse L5178Y cells expressing human ABCB1 by MTT assay; format: ADME, cell-based
A2780cisR = test: Induction of ABCB1/2 expression in human A2780cisR cells at 10 uM after 72 hrs by Western blot analysis; format: functional, cell-based
Homo sapiens [10] = species on record: Homo sapiens; test: Induction of ABCB1 expression in human EPG85-257RDB cells at 10 uM after 72 hrs by Western blot analysis; format: functional, cell-based
[11] = target: T1, ATP-dependent translocase ABCB1; test: Ratio of verapamil to compound for inhibition of human ABCB1 expressed in mouse L5178Y cells using rhodamine 123 as substrate assessed as ratio of fluorescent intensity in ABCB1 expressing L5178Y cells to wild type L5178Y cells at 1 to 10 uM after 20 mins by flow cytometry; format: cell-based

T1 sequence (P08183 whole entry): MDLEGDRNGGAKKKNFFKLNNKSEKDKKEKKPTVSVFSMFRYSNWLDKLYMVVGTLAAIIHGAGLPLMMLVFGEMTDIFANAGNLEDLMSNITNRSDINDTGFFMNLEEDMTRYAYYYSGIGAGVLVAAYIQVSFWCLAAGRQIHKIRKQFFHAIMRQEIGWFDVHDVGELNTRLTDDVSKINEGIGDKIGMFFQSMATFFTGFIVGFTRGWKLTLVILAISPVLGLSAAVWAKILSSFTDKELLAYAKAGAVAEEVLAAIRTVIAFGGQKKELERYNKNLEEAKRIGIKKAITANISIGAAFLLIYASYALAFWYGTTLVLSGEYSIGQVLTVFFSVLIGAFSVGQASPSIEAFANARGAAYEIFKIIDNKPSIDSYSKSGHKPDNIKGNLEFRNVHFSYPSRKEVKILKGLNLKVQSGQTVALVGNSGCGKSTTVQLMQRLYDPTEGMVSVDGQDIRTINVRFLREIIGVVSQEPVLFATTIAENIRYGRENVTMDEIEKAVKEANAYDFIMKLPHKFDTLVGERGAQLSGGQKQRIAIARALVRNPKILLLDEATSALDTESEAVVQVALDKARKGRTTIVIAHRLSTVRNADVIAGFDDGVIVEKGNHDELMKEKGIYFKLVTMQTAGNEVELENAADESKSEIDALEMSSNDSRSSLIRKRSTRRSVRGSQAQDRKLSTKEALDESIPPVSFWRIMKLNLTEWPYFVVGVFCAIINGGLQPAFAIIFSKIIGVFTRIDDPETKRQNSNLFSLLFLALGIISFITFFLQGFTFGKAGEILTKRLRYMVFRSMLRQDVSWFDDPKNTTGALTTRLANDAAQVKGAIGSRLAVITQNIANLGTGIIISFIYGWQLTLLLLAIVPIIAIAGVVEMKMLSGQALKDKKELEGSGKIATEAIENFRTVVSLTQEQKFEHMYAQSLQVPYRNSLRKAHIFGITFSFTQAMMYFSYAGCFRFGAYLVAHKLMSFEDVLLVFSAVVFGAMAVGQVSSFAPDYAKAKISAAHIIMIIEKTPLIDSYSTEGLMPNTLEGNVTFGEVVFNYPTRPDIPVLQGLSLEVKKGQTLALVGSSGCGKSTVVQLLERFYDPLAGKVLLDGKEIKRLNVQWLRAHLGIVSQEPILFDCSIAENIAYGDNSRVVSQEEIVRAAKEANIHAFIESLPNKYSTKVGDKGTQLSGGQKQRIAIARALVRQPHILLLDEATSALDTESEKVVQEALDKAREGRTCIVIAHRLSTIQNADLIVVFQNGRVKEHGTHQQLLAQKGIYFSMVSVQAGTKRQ

| Ratio [1] | Ratio [2] | SMILES | other results |
| --- | --- | --- | --- |
| 9.68 | 2.26 | CCOC(=O)C1=CN(Cc2cccc(OC)c2)c2ccccc2C1c1cccc(OC)c1 (stereo not drawn) | – |
| 15.84 | 2.41 | CCOC(=O)C1=CN(Cc2ccc(OC)cc2)c2ccccc2C1c1ccc(OC)c(OC)c1 (stereo not drawn) | – |
| 10.5 | 2.96 | CCOC(=O)C1=CN(Cc2ccccc2)c2ccccc2C1c1cc(OC)cc(OC)c1 (stereo not drawn) | – |
| 4.72 | 1.48 | CCOC(=O)C1=CN(Cc2ccccc2)c2ccccc2C1c1ccccc1 (stereo not drawn) | – |
| 4.98 | 1.46 | COc1ccc(CCN(C)CCCC(C#N)(c2ccc(OC)c(OC)c2)C(C)C)cc1OC (stereo not drawn) [VERAPAMIL] | – |
| 9.95 | 2.23 | CCOC(=O)C1=CN(Cc2cccc(OC)c2)c2ccccc2C1c1ccc(OC)cc1 (stereo not drawn) | – |
| 13.36 | 3.63 | CCOC(=O)C1=CN(Cc2ccc(OC)cc2)c2ccccc2C1c1cc(OC)cc(OC)c1 (stereo not drawn) | – |
| 13.66 | 2.55 | CCOC(=O)C1=CN(Cc2ccc(OC)cc2)c2ccccc2C1c1ccc(OC)cc1 (stereo not drawn) | – |
| 13.11 | 2.71 | CCOC(=O)C1=CN(Cc2cccc(OC)c2)c2ccccc2C1c1cc(OC)cc(OC)c1 (stereo not drawn) | – |
| 15.86 | 2.98 | CCOC(=O)C1=CN(Cc2cccc(OC)c2)c2ccccc2C1c1ccc(OC)c(OC)c1 (stereo not drawn) | Activity (L5178Y [3]): Non-toxic; Activity (Homo sapiens [4]): inactive; IC50 (L5178Y [5]): > 160 µM; Activity (EPG85-257P [6]): inactive; Activity (EPG85-257P [7]): inactive; Activity (L5178Y [8]): Non-toxic; IC50 (L5178Y [9]): > 160 µM; Activity (A2780cisR): inactive; Activity (Homo sapiens [10]): inactive |
| 10.34 | 2.03 | CCOC(=O)C1=CN(Cc2ccc(OC)cc2)c2ccccc2C1c1cccc(OC)c1 (stereo not drawn) | – |
| 12.77 | 3.42 | CCOC(=O)C1=CN(Cc2ccccc2)c2ccccc2C1c1ccc(OC)c(OC)c1 (stereo not drawn) | Ratio [11]: 2.5; Activity (L5178Y [3]): Non-toxic; IC50 (L5178Y [5]): > 160 µM; Activity (L5178Y [8]): Non-toxic; IC50 (L5178Y [9]): > 160 µM |
